ChEMBL document CHEMBL5727147, “Pharmaceutical compounds” (2018)

Biological target: T1, Serine/threonine-protein kinase Chk1 (Homo sapiens, UniProt O14757)
T1 sequence (O14757 whole entry): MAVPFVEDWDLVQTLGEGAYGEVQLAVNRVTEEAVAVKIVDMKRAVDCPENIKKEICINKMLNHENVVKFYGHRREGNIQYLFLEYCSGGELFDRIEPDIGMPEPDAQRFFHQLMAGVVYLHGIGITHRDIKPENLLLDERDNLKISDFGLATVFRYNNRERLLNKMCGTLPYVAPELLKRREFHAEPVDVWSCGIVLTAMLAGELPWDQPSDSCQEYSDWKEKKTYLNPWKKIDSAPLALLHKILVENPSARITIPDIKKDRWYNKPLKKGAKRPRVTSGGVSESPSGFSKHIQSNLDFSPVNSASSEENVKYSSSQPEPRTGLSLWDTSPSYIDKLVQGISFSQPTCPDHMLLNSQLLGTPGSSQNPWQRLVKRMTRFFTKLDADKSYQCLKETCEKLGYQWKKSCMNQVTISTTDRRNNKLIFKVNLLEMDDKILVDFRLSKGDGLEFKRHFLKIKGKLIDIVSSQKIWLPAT
Test: Kinase Inhibiting Activity Assay: Chk-1 Kinase Inhibiting ActivityThe compounds of the invention were tested for activity against Chk-1 kinase using the materials and protocols set out below.Reaction Buffer:Base Reaction buffer: 20 mM Hepes (pH 7.5), 10 mM MgCl2, 1 mM EGTA, 0.02% Brij35, 0.02 mg/ml BSA, 0.1 mM Na3VO4, 2 mM DTT, 1% DMSO*Required cofactors are added individually to each kinase reactionReaction Procedure:(i) Prepare indicated substrate in freshly prepared Base Reaction Buffer(ii) Deliver any required cofactors to the substrate solution above(iii) Deliver indicated kinase into the substrate solution and gently mix(iv) Deliver compounds in DMSO into the kinase reaction mixture(v) Deliver 33P-ATP (specific activity 0.01 μCi/μl final) into the reaction mixture to initiate the reaction.(vi) Incubate kinase reaction for 120 minutes at room temperature(vii) Reactions are spotted onto P81 ion exchange paper (Whatman #3698-915)(viii) Wash filters extensively in 0.1% phosphoric acid.(ix) Dry filters and measure counts in scintillation counterKinase Information:CHK-1 Genbank Accession # AF016582Recombinant full length construct, N-terminal GST tagged, purified from insect cells.No special measures were taken to activate this kinase.Final concentration in assay=0.5 nMSubstrate: CHKtidePeptide sequence: [[…]]Final concentration in assay=20 μM

Row | IC50 | SMILES
1 | < 1 nM | COc1cc(OCc2cocn2)ccc1-c1cc(Nc2cnc(C#N)cn2)n[nH]1
2 | 0.51 nM | COc1cc(C2CCCCN2C)ccc1-c1cc(Nc2cnc(C#N)cn2)n[nH]1 (stereo not drawn)
3 | 0.59 nM | COc1cc(CNC(=O)C2CC2)ccc1-c1cc(Nc2cnc(C#N)cn2)n[nH]1
